Results: patent US6822140B2, “Compositions and methods for fumonisin detoxification” (Pioneer Hi-Bred International, Inc., priority 1999, dated 2004)

Experiments:
[1] = system: tomato; settings: Lamprecht et al. (1994); cited from earlier work
[2] = system: Lemna tissues; settings: Vesonder et al. (1992); cited from earlier work
[3] = system: Maize coleoptiles; assay: Effect of FB1 and AP1 on maize coleoptiles (injury evaluation); parameters: key to Injury or lack thereof of maize coleoptiles: + = brown necrotic discoloration of coleoptile; − = no symptoms (same as water control); settings: for Injury or lack thereof of maize coleoptiles: 2 days dark at 28° C. then 3 days light
Experimental: Maize coleoptiles from 4 day dark-grown germinated maize seeds were excised above the growing point and placed in 96-well microliter plates in the presence of 60 microliters of sterile distilled water containing FB1 or AP1 at approximately equimolar concentrations of 1.5, 0.5, 0.15, 0.05, 0.015, 0.005, 0.0015, or 0.0005 millimolar, along with water controls. After 2 days in the dark at 28° C. the coleoptiles were placed in the light and incubated another 3 days.

[4] = system: BMS cells; assay: Effect of FB1 and AP1 on growth of maize tissue cultured cells (Black Mexican Sweet, BMS); type: cell-based; settings: for concentration at which growth of BMS cells was inhibited: 1 week, liquid culture, compared to water control wells
Experimental: FB1 or AP1 at various concentrations was added to suspensions of BMS cells growing in liquid culture medium in 96-well polystyrene plates. After 1 week the cell density in wells was observed under low power magnification and growth of toxin-treated wells was compared to control wells that received water. […] This represents an approximate 100-fold difference in toxicity to maize tissue-cultured cells. […] AP1 was not tested in that study, however.

[5] = system: maize callus; settings: solid medium; Van Asch et al. (1992); cited from earlier work

Row | Compound | reduction in toxicity to tomato by AP1 versus FB1 [1] | AP1 less toxic (than FB1) in Lemna tissues [2] | Injury or lack thereof of maize coleoptiles ([3]; 1.5 mM) | Injury or lack thereof of maize coleoptiles ([3]; .0005 mM) | Injury or lack thereof of maize coleoptiles ([3]; .0015 mM) | Injury or lack thereof of maize coleoptiles ([3]; .005 mM) | Injury or lack thereof of maize coleoptiles ([3]; .015 mM) | Injury or lack thereof of maize coleoptiles ([3]; .05 mM) | Injury or lack thereof of maize coleoptiles ([3]; .15 mM) | Injury or lack thereof of maize coleoptiles ([3]; .5 mM) | difference in toxicity between FB1 and AP1 to maize coleoptiles ([3]; AP1 less toxic than FB1) | concentration at which growth of BMS cells was inhibited [4] | difference in toxicity to maize tissue-cultured cells (FB1 vs AP1) ([4]; AP1 less toxic than FB1) | concentration giving significant inhibition of maize callus [5]
1 | CCCC[C@@H](C)[C@@H](O)[C@@H](O)C[C@@H](C)C[C@H](O)CCCC[C@@H](O)C[C@H](O)[C@H](C)N [AP1] | ~100 fold | approximately 40 fold | + | − | − | − | − | − | − | − | ≥ 30 fold | 40000 nM | ~100 fold | 
2 | CCCC[C@@H](C)[C@@H](OC(=O)C[C@@H](CC(=O)O)C(=O)O)[C@H](C[C@@H](C)C[C@H](O)CCCC[C@@H](O)C[C@H](O)[C@H](C)N)OC(=O)C[C@@H](CC(=O)O)C(=O)O [FB1, fumonisin B1] |  |  | + | − | − | − |  | + | + | + |  | 400 nM |  | 1400 nM
